# Entries after “also recorded” stand apart in the source; their conditions may differ.
# Legend:
# [1] = Critical micelle concentration by fluorescent staining with diphenylhexatriene (DPH); type: physicochemical; conditions: aqueous solution
# Method: A method for measuring CMC is not particularly limited, and a method widely known in the art may be used, for example, by fluorescence staining with diphenylhexatriene (DPH).
# (§1) To identify the characteristics of NBMs synthesized in Preparation Example 1 to 6 according to the synthetic method of Example 1, molecular weights (MWs) of NBMs, critical micelle concentrations (CMCs) and hydrodynamic radii (Rh) of the micelles were measured.
# (§2) Specifically, the critical micelle concentrations (CMCs) were measured by fluorescent staining with diphenylhexatriene (DPH), and the hydrodynamic radii (Rh) of the micelle formed with individual agents (1.0 wt %) were measured by dynamic light scattering (DLS).
# [2] = Hydrodynamic radius / size distribution of micelles by dynamic light scattering (DLS); type: physicochemical; conditions: for Rh (nm), hydrodynamic radius of micelles: 1.0 wt % agent; for Micelle size change with temperature: temperature-dependent (FIGS. 7a, 7b)
# Method: A method for measuring the radius of a micelle is not particularly limited, and a method well known in the art may be used, and for example, the radius thereof may be measured using a dynamic light scattering (DLS) experiment.
# as §1, §2
# [3] = biological target: T1, human β2 adrenergic receptor (β2AR) (Homo sapiens, UniProt P07550); assay: β2AR stability: [3H]-DHA ligand binding activity of solubilized receptor; conditions: 0.2% amphiphile, room temperature, 3 days (7 days for receptor extracted with the amphiphile)
# T1 construct: made in house
# Method: An experiment of measuring the stability of human β2 adrenergic receptor (β2AR) and G-protein-coupled receptor (GPCR) for NBMs was carried out. That is, the receptor was extracted from the cell membranes by DDM and purified in the same amphiphilic compound. The DDM-purified receptor was diluted in individual DDM- or NBM-containing buffers to adjust the final compound concentration to be CMC+0.2 wt %. The receptor stability was assessed by measuring ligand binding activity using [3H]-DHA.
# To measure long-term stability of human β2AR with NBMs (D-NBM-C11 and X-NBM-C11) showing an excellent ligand binding activity of the receptor in the previous experiment, a radio-labeled ligand binding experiment was performed by the following method. β2AR was purified using 0.1% DDM (D. M. Rosenbaum et al., Science, 2007, 318, 1266-1273), and finally concentrated to approximately 10 mg/ml (approximately 200 μM). A main binding mixture containing 10 nM [^3H]-DHA supplemented with 0.5 mg/ml BSA was prepared in 0.2% amphiphilic compound (DDM or NBMs (D-NBM-C11 and X-NBM-C11)) using β2AR purified with DDM. The receptor purified with DDM or NBMs was incubated with 10 nM [^3H]-DHA at room temperature for 30 minutes. The mixture was loaded onto a G-50 column, the fractions were collected in a 1 ml binding buffer (20 mM HEPES pH 7.5, 100 mM NaCl, containing 0.5 mg/ml BSA and 20× CMC individual amphiphilic compounds). In addition, each fraction was supplemented with a 15 ml scintillation fluid, and receptor-bound [^3H]-DHA was measured using a scintillation counter (Beckman) at regular intervals for 3 days. The binding capacity of [^3H]-DHA was shown as a bar chart (FIG. 11a).
# In addition, β2AR was extracted from the membrane using 1.0 wt % of DDM or X-NBM-C11 and purified at 0.2 wt % for the same individual amphiphilic compounds. Structural stability of the receptor was assessed by ligand binding activity, which was measured with sample aliquots at regular intervals during 7-day incubation at room temperature. Each experiment was carried out in triplicate (FIG. 12b).
# [4] = tested on: leucine transporter (LeuT); assay: LeuT stability: [3H]-Leu substrate binding by scintillation proximity assay (SPA); parameters: species or system Aquifex aeolicus; conditions: t=12 day, CMC+0.04 wt %, room temperature
# Method: An experiment for measuring the stability of LeuT protein with NBMs was performed. Concentrations of individual amphiphilic compounds were (a) CMC+0.04 wt % and (b) CMC+0.2 wt %, and the stability of the LeuT protein was evaluated by measuring a LeuT substrate binding activity using [3H]-Leu via scintillation proximity assay (SPA). The measurement was performed at regular intervals during 12-day incubation at room temperature. Specifically, a wild-type leucine transporter (LeuT) derived from thermophilic bacteria Aquifex aeolicus was purified by the method described previously (G. Deckert et al., Nature 1998, 392, 353-358). LeuT was expressed in E. coli C41 (DE3) transformed with pET16b encoding C-terminally 8× His-tagged transporter (the expression plasmid was provided by Dr E. Gouaux, Vollum Institute, Portland, Oreg., USA). […] Protein samples were stored for 12 days at room temperature, and centrifuged at predetermined points of time, the substrate ([3H]-leucine)-binding activity of the transporter was determined via SPA by taking advantage of protein properties. […] Total [3H]-leucine binding for the respective samples was measured using a MicroBeta liquid scintillation counter (Perkin Elmer).
# T1 sequence (P07550 whole entry): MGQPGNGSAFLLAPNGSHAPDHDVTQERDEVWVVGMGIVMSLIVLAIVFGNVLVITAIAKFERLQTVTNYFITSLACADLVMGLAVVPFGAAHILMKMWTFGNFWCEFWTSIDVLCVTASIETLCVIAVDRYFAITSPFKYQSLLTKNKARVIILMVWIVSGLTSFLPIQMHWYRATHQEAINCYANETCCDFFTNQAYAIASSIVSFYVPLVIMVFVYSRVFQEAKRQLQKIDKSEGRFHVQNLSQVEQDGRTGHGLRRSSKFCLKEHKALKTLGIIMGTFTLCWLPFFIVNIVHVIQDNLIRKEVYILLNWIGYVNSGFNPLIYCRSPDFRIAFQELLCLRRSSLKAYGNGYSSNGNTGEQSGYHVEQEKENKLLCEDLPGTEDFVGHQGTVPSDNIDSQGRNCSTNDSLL
Structure (SMILES),CMC [1] [mM],CMC (wt %) [1] [wt %],"Rh (nm), hydrodynamic radius of micelles [2] [nm]",Micelle size change with temperature [2],Long-term ligand binding activity of β2AR ([3H]-DHA) [3],LeuT substrate binding activity at the end of incubation [4]
CCCCCCCCCCCOCC1C2CC([C@H]1COCCCCCCCCCCC)[C@H](O[C@@H]1OC(CO)[C@@H](O[C@H]3OC(CO)[C@@H](O)C(O)C3O)C(O)C1O)C2O[C@@H]1OC(CO)[C@@H](O[C@H]2OC(CO)[C@@H](O)C(O)C2O)C(O)C1O (stereo partly drawn) [X-NBM-C11],~0.006,~0.0007,17.3 ± 0.10,changed according to a temperature,well retained; also recorded: highest ligand binding retention property,a little less than the initial activity of LeuT solubilized in DDM
CCCCCCCCCCCOCC1C2CC([C@@H]1COCCCCCCCCCCC)[C@H](O[C@@H]1OC(CO)[C@@H](O[C@H]3OC(CO)[C@@H](O)C(O)C3O)C(O)C1O)C2O[C@@H]1OC(CO)[C@@H](O[C@H]2OC(CO)[C@@H](O)C(O)C2O)C(O)C1O (stereo partly drawn) [D-NBM-C11],~0.007,~0.0008,3.7 ± 0.05,not influenced by a temperature change,well retained,a little less than the initial activity of LeuT solubilized in DDM
